Measurements: PubChem BioAssay (NCI)
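1) Cells in 96-well plates. 2) Compound, 48 h, 5 concentrations. 3) Linear interpolation between surrounding doses. 4) Unreached endpoint = highest concentration. Here, GI50 denotes the concentration required for 50% inhibition of growth. TGI denotes the concentration required for complete inhibition of growth.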

Columns and labels:
Test in all cases: NCI-60 cell line screen, 48 h
OVCAR-4 ovarian = tested on: OVCAR-4 ovarian
COLO 205 colon = tested on: COLO 205 colon
NCI-H522 lung = tested on: NCI-H522 lung
SNB-19 CNS = tested on: SNB-19 CNS
SK-OV-3 ovarian = tested on: SK-OV-3 ovarian
HCT-15 colon = tested on: HCT-15 colon
UACC-62 melanoma = tested on: UACC-62 melanoma
OVCAR-3 ovarian = tested on: OVCAR-3 ovarian
HL-60(TB) leukemia = tested on: HL-60(TB) leukemia
IGROV1 ovarian = tested on: IGROV1 ovarian

SMILES | TGI (OVCAR-4 ovarian) [µM] | TGI (COLO 205 colon) [µM] | TGI (NCI-H522 lung) [µM] | TGI (SNB-19 CNS) [µM] | TGI (SK-OV-3 ovarian) [µM] | TGI (HCT-15 colon) [µM] | TGI (UACC-62 melanoma) [µM] | TGI (OVCAR-3 ovarian) [µM] | TGI (HL-60(TB) leukemia) [µM] | GI50 (OVCAR-4 ovarian) [µM] | GI50 (COLO 205 colon) [µM] | GI50 (OVCAR-3 ovarian) [µM] | GI50 (HL-60(TB) leukemia) [µM] | GI50 (NCI-H522 lung) [µM] | GI50 (SNB-19 CNS) [µM] | GI50 (SK-OV-3 ovarian) [µM] | GI50 (HCT-15 colon) [µM] | GI50 (UACC-62 melanoma) [µM] | GI50 (IGROV1 ovarian) [µM] | TGI (IGROV1 ovarian) [µM]
COc1cc(C2S/C(=C/c3ccccc3)C(=O)N2c2ccc(NC(C)=O)cc2)cc(OC)c1OC (stereo not given) | > 100 | 30.3 | 26.6 | > 100 | > 100 | 46.7 | > 100 |  |  |  |  |  |  |  |  |  |  |  |  | 
COc1ccc(-c2csc(=Nc3ccccc3)n2CCCN(C)C)cc1 | 65.6 |  |  | 48.1 | 39.4 | > 100 | 34.7 | 37.5 | > 100 |  |  |  |  |  |  |  |  |  |  | 
COc1cc([C@@H]2c3cc4c(c(O)c3C[C@H]3COC(=O)[C@@H]32)OCO4)cc(OC)c1OC |  |  |  |  |  |  |  |  |  | 2.3 | 0.239 | 0.089 | 0.582 | 0.393 | 0.114 | 0.183 | 0.19 | 0.144 | 0.0728 | 
Cc1nc2c(c(=O)[nH]1)S/C(=C(/C#N)c1nc3ccccc3[nH]1)N2c1ccccc1 | > 100 | > 100 | > 100 | > 100 | > 100 | > 100 | > 100 | > 100 | > 100 |  |  |  |  |  |  |  |  |  |  | > 100
C=C(C)C(=O)O[C@H]1CC2=C[C@@H](C[C@@]3(C)O[C@@H]3[C@H]3OC(=O)C(=C)[C@@H]31)OC2=O | 6.48 | 3.4 | 1.71 | 49.1 | 34.9 | 2.72 | 7.61 | 3.74 | 1.12 |  |  |  |  |  |  |  | 0.773 |  |  | 9.46
NC(CSCc1ccc(I)cc1)C(=O)O (stereo not given) | > 100 | > 100 | > 100 | > 100 | > 100 | > 100 | > 100 | > 100 | > 100 |  |  |  |  |  |  |  |  |  |  | > 100
CC(=O)N1N=C(c2ccc3ccccc3c2O)CC1c1cccs1 (stereo not given) | > 100 | > 100 | 75.1 |  | > 100 | > 100 | 25.9 | > 100 |  |  |  |  |  |  |  |  |  |  |  | > 100
CCOC1=NC(C(F)(F)F)(C(F)(F)F)N=C(N2CCOCC2)O1 | > 100 | > 100 | > 100 | > 100 | > 100 | > 100 | > 100 | > 100 | > 100 |  |  |  |  |  |  |  |  |  |  | > 100
COc1nc2ccc(COc3ccc(C(=O)NC(CCC(=O)O)C(=O)O)cc3)cc2nc1OC (stereo not given) | > 10 | > 10 | > 10 | > 10 | > 10 | > 10 | > 10 | > 10 | > 10 |  |  |  |  |  |  |  |  |  |  | > 10
O=C1C(Cl)N(c2cccc(Cl)c2)C1c1c[nH]c2ccccc12 (stereo not given) | > 100 | > 100 | > 100 | > 100 | > 100 |  | > 100 | > 100 | > 100 |  |  |  |  |  |  |  |  |  |  | > 100
c1ccc(N2N=C(c3cccc(Nc4ccncc4)c3)CC2c2ccc3c(c2)OCO3)cc1 (stereo not given) | 3.89 | 3.84 | 3.48 | 6.67 | 10.2 | 3.38 | 3.24 | 2.92 | 3.69 | 1.53 | 1.8 | 1.48 | 1.77 | 1.61 | 2.2 | 2.73 | 1.49 | 1.73 | 1.7 | 3.6
NC(=S)N/N=C/c1nccc2ccccc12 | > 100 | > 100 | 5.24 | 32.7 | 8.52 | > 100 | 14.7 |  | 4.23 |  |  |  |  |  |  |  |  |  |  | > 100
CC[C@@H]1ON(C)[C@H]2CN(C)C(=O)[C@@H]12 | > 100 | > 100 | > 100 | > 100 | > 100 | > 100 |  | > 100 | > 100 |  |  |  |  |  |  |  |  |  |  | > 100
COc1ccc2c(c1O)-c1cc(O)cc3c1[C@@H](C2)N(C)CC3 | 125 | 106 | 255 | 378 | 289 | 140 | 136 | 84.2 | 191 |  |  |  |  |  |  |  |  |  |  | 139
